What all share (assay): inhibition of tumour cell growth, NCI panel, 48 h
Test [1] has as its system IGROV1 ovarian.
Test [2] concerns A498 renal.
In test [3] the test system is NCI/ADR-RES ovarian.
The test system of test [4] is TK-10 renal.
Test [5] relates to A549 NSCLC.
The test system of test [6] is MCF7 breast.
Test [7] deals with HT29 colon.
The test system of test [8] is SNB-75 CNS.
Test [9] relates to EKVX NSCLC.
In test [10] the test system is SF-539 CNS.

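Tested at 5 concentrations; 48 h exposure; 96-well plates; endpoints linearly interpolated, else capped at highest concentration. TGI marks complete inhibition of growth.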

The record followed here is PubChem BioAssay (NCI).

Take `COP(=O)(O)C(N)Cc1c[nH]c2ccccc12` (stereo unspecified): the TGI in [1], in test [2], in [3], in test [4], in [5] and in [6] was > 100 µM each time. In addition, the TGI in [7] was > 100 µM.

For the compound `O=C(CSc1nnc(-c2ccc(N=Cc3ccc(Cl)cc3)cc2)o1)Nc1ccc([N+](=O)[O-])cc1`, the TGI in [8] was 58.1 µM; in [9], > 100 µM; in test [4], > 100 µM; in [5] it was > 100 µM; in [7], 35.9 µM.

`COc1cccc(-c2nccc3c(OCc4ccccc4)c(OC)c(OC)cc23)c1`: the TGI in test [1], in test [2], in [8], in test [9], in [4] and in test [5] was > 100 µM each time. Moreover, the TGI in test [10] and in test [7] was > 100 µM in each case.

For the compound `O=[N+]([O-])c1cccc(Cl)c1Oc1ccc(S(=O)(=O)/N=C(\NO)Nc2ccc(Cl)cc2)cc1`, the TGI was 35.6 µM in [1]; 28.2 µM in [2]; 50.7 µM in test [3]; 26.2 µM in test [9]; 30.4 µM in [4]; 28.7 µM in test [5]. In addition, the TGI in [10] worked out at 28.1 µM; in test [6] it was 32.2 µM; in [7] it was 30.8 µM.

Consider `CCCCn1c2ccccc2c2ccc3c(c21)C(=O)C=CC3=O`, for which the TGI in test [1] was > 100 µM; in test [2] it was > 100 µM; in test [8], 0.638 µM; in test [4], > 100 µM; in test [5] it was > 100 µM; in [10], > 100 µM. In [7], this compound came in with a TGI of 3.46 µM.

Regarding `Cn1ccnc1CCc1ccc(Cl)c(Cl)c1`, the TGI in test [1], in test [2], in test [8], in test [4], in [5] and in [10] was > 100 µM each time. In test [7], the TGI was > 100 µM.

`CN[C@@H](C)[C@@H](O)c1ccccc1`: the TGI in [1], in test [3], in [8], in test [9], in test [4] and in test [5] was > 100 µM in each case. For the same compound, the TGI in test [10], in [6] and in test [7] was > 100 µM each time.

Take `CC12CCC(C(=Nc3cc(C(F)(F)F)cc(C(F)(F)F)c3)C1=O)C2(C)C` (stereo unspecified): the TGI in test [1] is 76.1 µM; in [2], 62.5 µM; in [3], > 100 µM; in [9] it was > 100 µM; in test [4], > 100 µM; in [5], > 100 µM. Besides, the figures for the TGI in [10], in test [6] and in test [7] were 44.9 µM, > 100 µM and > 100 µM, respectively.

With `O=C(O)CNC(=O)c1ccc2cc(C(=O)N3CC(CCl)c4ccc([N+](=O)[O-])cc43)[nH]c2c1` (stereo unspecified), the TGI in test [1], in test [3], in test [8], in test [9], in test [4] and in test [5] was > 100 µM each time. In addition, the TGI in [10], in [6] and in [7] was > 100 µM in each case.

For `Cc1ccc2c(C(=O)c3c(C)n(CCN4CCOCC4)c4ccccc34)cccc2c1`, the TGI was > 100 µM in [1]; > 100 µM in [2]; 43.1 µM in test [3]; 63.3 µM in [9]; 55.6 µM in test [4]; > 100 µM in test [5]. The figures for the TGI in test [10], in test [6] and in test [7] were 12.8 µM, 16.8 µM and 25.6 µM, respectively.

Consider `CN(Cc1cnc2nc(N)nc(N)c2n1)c1ccc(C(=O)NC(CCC(=O)NC(CC(P(=O)(O)O)P(=O)(O)O)C(=O)O)C(=O)O)cc1` (stereo unspecified), for which the TGI in test [1], in test [3], in [8], in test [9], in test [4] and in test [5] was > 100 µM each time. Also, the TGI in test [6] and in test [7] was > 100 µM in each case.

For the compound `COC([C@@H](OC(=O)c1ccccc1)[C@H](OC(=O)c1ccccc1)C(O)COC(=O)c1ccccc1)n1cc(C)c(=O)[nH]c1=O` (stereo partly specified), the TGI in test [1] was > 100 µM; in test [3], > 100 µM; in test [8], 73.8 µM; in [9] it was > 100 µM; in test [4] it was > 100 µM; in test [5], > 100 µM. The results for the TGI in test [6] and in test [7] were 52.3 µM and 41.4 µM, respectively.

Regarding `N[C@H](CCC(=O)NCP(=O)(O)O)C(=O)O`, the TGI in test [1] is > 100 µM; in test [2], > 100 µM; in test [3], > 100 µM; in test [9], > 100 µM; in test [4], 25.6 µM; in [5], > 100 µM. For the same compound, the TGI in [10], in test [6] and in test [7] was > 100 µM each time.

Consider `CC12ON(P(=O)(c3ccccc3)c3ccccc3)C(C)(c3ccccc31)c1ccccc12`, for which the TGI in test [1], in test [3], in test [8], in test [9], in test [4] and in [5] was > 100 µM in each case. The TGI in test [10] and in test [7] was > 100 µM each time.

Consider `Cc1c(-c2nnc(-c3ccccc3)o2)c(=O)n(-c2ccccc2)n1C`, for which the TGI in [1], in test [2], in test [8], in test [9], in test [4] and in test [5] was > 100 µM each time. The TGI in test [10] and in test [7] was > 100 µM in each case.

Take `CN(C)c1ccc(/C=C/C(=O)O)cc1`: the TGI in [1], in test [2], in [8], in [9], in [5] and in test [10] was > 100 µM throughout. In [7], the TGI was > 100 µM.

As to `N=c1oc2ccccc2cc1-c1nc2ccccc2c(=O)[nH]1`, the TGI in test [1] is > 100 µM; in test [3], > 100 µM; in test [8], 25.3 µM; in [9], > 100 µM; in [4] it was > 100 µM; in [5], > 100 µM. For the same compound, the TGI in [10], in test [6] and in [7] was > 100 µM in each case.

For the compound `COCC12CCC(OC)C34C5CC6(O)C(OC)CC(OC(C)=O)(C5C6OC(=O)c5ccccc5)C(C(OC)C13)C4N(C)C2` (stereo unspecified), the TGI in test [1], in test [2], in test [3], in test [9], in [4] and in [5] was > 100 µM throughout. Besides, the TGI in test [10], in [6] and in [7] was > 100 µM throughout.

`O=C(C(Cl)=C(N1CCCCC1)N1CCCCC1)C(Cl)Cl`: the TGI in test [1], in test [2], in test [3], in test [9], in test [4] and in test [5] was > 100 µM throughout. Also, the TGI in test [10], in test [6] and in test [7] was > 100 µM throughout.

On to `CCOC(=O)C(=O)CC(=O)C1=C(c2ccccc2OC)CC(c2cccs2)=CC1=O`, for which the TGI in test [1] was > 100 µM; in [2], > 100 µM; in test [3], > 100 µM; in test [8] it was 49.8 µM; in test [9] it was > 100 µM; in test [4], > 100 µM. Also, the TGI in test [5], in [10] and in test [7] was > 100 µM throughout.

Regarding `C[n+]1c2ccccc2c(/C=N\NS(=O)(=O)c2ccc(Cl)cc2)c2ccccc21`, the TGI in [1], in test [2], in test [8], in test [9], in test [4] and in [5] was > 100 µM in each case. Also, the TGI in test [10] and in [7] was > 100 µM each time.

Consider `CCOc1ccc(/C=C2\NC(=S)N(/C=C3\C(=O)Oc4ccccc4C3=O)C2=O)cc1`, for which the TGI in test [1] amounted to 61.7 µM; in test [3] it was 45.7 µM; in [8] it was 61.6 µM; in test [9] it was 70 µM; in test [4], 49.6 µM; in test [10], 36.5 µM. The TGI in test [6] was 63.1 µM; in test [7], 82.1 µM.

`O=[N+]([O-])c1ccc([N+]2=NC(c3ccccc3)=NN(c3ccccc3)C2)cc1`: the TGI in test [1], in [8], in [4], in [5], in test [10] and in [7] was > 100 µM throughout.

For the compound `CCC(=O)/C(=C\I)c1ccccc1`, the TGI in [1] was 4.28 µM; in test [2], 32.1 µM; in [3] it was 32.2 µM; in test [8], 3.48 µM; in test [9] it was 33.6 µM; in test [4], 28.3 µM. The TGI in test [5] was 37 µM; in [10] it was 34.3 µM; in [7], 2.51 µM.

Turning to `CCN(CC)CCOc1ccc(C(O)(Cc2ccc(OC)cc2)c2ccccc2)cc1` (stereo unspecified), the TGI in test [1] came out at 87.8 µM; in test [2], 41.2 µM; in test [8], 27.6 µM; in [9], 80.6 µM; in [4], 76.4 µM; in test [5], 48.5 µM. In addition, the figures for the TGI in test [10] and in test [7] were 25.1 µM and 14.6 µM, respectively.

For `CNC(=S)NNc1ncnc2c1ncn2-c1ccc(C)cc1`, the TGI in test [1], in [2], in test [3], in test [9], in test [4] and in test [5] was > 100 µM each time. For the same compound, the TGI in [10] and in [7] was > 100 µM throughout.

On to `O=C1C2=C(SCCS2)C(=O)c2c(Sc3ccc(Cl)cc3)c(Sc3ccc(Cl)cc3)c(Sc3ccc(Cl)cc3)c(Sc3ccc(Cl)cc3)c21`, for which the TGI was > 100 µM in test [1]; 73.7 µM in test [2]; > 100 µM in test [3]; > 100 µM in [8]; > 100 µM in test [9]; > 100 µM in test [5]. Moreover, in [6], the TGI was > 100 µM.

Turning to `COC(=O)c1ccccc1C1=C([N+](=O)[O-])C(c2ccccc2)C(C#N)=C(N)O1` (stereo unspecified), the TGI in [1], in [3], in test [8], in [9], in test [4] and in test [5] was > 100 µM throughout. In addition, the TGI in [10] and in test [7] was > 100 µM in each case.

With `CC(C)(C)OC(=O)N1[C@@H]2Cc3ccc(N)cc3[C@@]1(C)c1ccccc12`, the TGI is > 100 µM in test [1]; 79.6 µM in test [2]; 51.1 µM in [3]; > 100 µM in test [9]; > 100 µM in test [4]; > 100 µM in test [5]. For the same compound, the TGI in test [6] is > 100 µM; in test [7], 44.1 µM.

Take `COc1c(C)c(C/C=C(\C)CC/C=C(\C)CC/C=C(\C)CCC=C(C)C)c(OC)c2ccccc12`: the TGI in test [1], in [3], in test [8], in test [9], in [4] and in test [5] was > 100 µM in each case. The TGI in [10], in [6] and in test [7] was > 100 µM each time.

With `COc1ccc(CNc2nc3cc(C(F)(F)F)ccc3nc2-c2ccccc2)cc1OC`, the TGI in test [1], in test [3], in test [8], in [9], in test [4] and in test [5] was > 100 µM each time. The figures for the TGI in [10], in test [6] and in [7] were > 100 µM, 42.5 µM and 61.1 µM, respectively.
